The values that follow come from PubChem BioAssay (NCI).

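How tested: cells in 96-well plates exposed to compound for 48 hours at five concentrations. Abbreviation: GI50, concentration required for 50% inhibition of growth. Definition used: TGI = concentration required for complete inhibition of growth.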

Some test systems named below: 786-0 renal; A498 renal; ACHN renal; CAKI-1 renal; HL-60(TB) leukemia; M14 melanoma; NCI-H522 lung; SF-295 CNS; SF-539 CNS; SK-MEL-28 melanoma; PC-3 prostate.
Holding throughout (test): DTP human tumour cell line panel, 48 h

For `COc1cc2ccc1-c1cc(ccc1O)CC1c3cc4c(cc3CCN1C)Oc1c(OC)cc3c(c1O4)C(C2)N(C)CC3` (stereo not drawn), the TGI in the assay with 786-0 renal came out at 3.15 µM; in the assay on A498 renal, 3.79 µM; in the assay on ACHN renal, 3.74 µM; in the assay with CAKI-1 renal, 5.79 µM; with HL-60(TB) leukemia, 4.53 µM; in the assay on M14 melanoma, 3.32 µM. Further, the TGI in the assay on NCI-H522 lung came to 3.2 µM; in the assay on SF-295 CNS, 3.33 µM; with SF-539 CNS, 3.27 µM; in the assay on SK-MEL-28 melanoma, 2.89 µM.
As for `Oc1cc(O)cc(/C=C/c2ccc(O)c(O)c2)c1`, the TGI was over 70 µM with A498 renal; over 30.8 µM with CAKI-1 renal; over 28.4 µM in the assay on HL-60(TB) leukemia; 7.17 µM in the assay on NCI-H522 lung; 60 µM in the assay on SF-295 CNS; 22.9 µM in the assay with SF-539 CNS. The same molecule yielded a TGI with SK-MEL-28 melanoma of over 100 µM.
For the molecule `CN(C)c1ccc(C2CC(=O)C(C#N)=C(c3ccccc3)NN2C)cc1` (stereo not drawn), the TGI in the assay with A498 renal was over 100 µM; in the assay with ACHN renal, over 100 µM; in the assay on CAKI-1 renal it was over 100 µM; in the assay on HL-60(TB) leukemia, 19.9 µM; in the assay with M14 melanoma it was 35.5 µM; in the assay on NCI-H522 lung it was 28.5 µM. For the same molecule, the TGI in the assay on SF-295 CNS and with SK-MEL-28 melanoma was over 100 µM each time.
Turning to `CN(C)c1ccc2nc3c(C(=O)O)cc(=O)c(O)c-3oc2c1`, the TGI was 82.7 µM in the assay on 786-0 renal; over 100 µM with A498 renal; over 100 µM with ACHN renal; over 100 µM in the assay on CAKI-1 renal; 72.3 µM in the assay with HL-60(TB) leukemia; 49.8 µM with M14 melanoma. Further, the TGI is 31.9 µM in the assay on NCI-H522 lung; over 100 µM in the assay with PC-3 prostate; over 100 µM with SF-295 CNS; 69.3 µM with SF-539 CNS; over 100 µM in the assay on SK-MEL-28 melanoma.
Take `C[n+]1cccc(/C=C/c2ccc3cccc(O)c3n2)c1`: the TGI was over 100 µM in the assay with 786-0 renal; over 100 µM with A498 renal; over 100 µM with ACHN renal; over 100 µM in the assay with CAKI-1 renal; 82.3 µM in the assay with HL-60(TB) leukemia; over 100 µM with M14 melanoma. For the same molecule, the TGI in the assay on NCI-H522 lung is 92.6 µM; in the assay with PC-3 prostate it was over 100 µM; in the assay on SF-295 CNS, over 100 µM; in the assay on SF-539 CNS it was over 100 µM; in the assay on SK-MEL-28 melanoma, over 100 µM.
For the molecule `CC(C)CNc1nc(N)[nH]c(=O)c1NC=O`, the TGI in the assay on 786-0 renal, in the assay with A498 renal, with ACHN renal, in the assay on CAKI-1 renal, in the assay on HL-60(TB) leukemia and in the assay on M14 melanoma was over 100 µM each time. Moreover, the TGI with NCI-H522 lung, with PC-3 prostate, in the assay on SF-295 CNS, in the assay with SF-539 CNS and in the assay on SK-MEL-28 melanoma was over 100 µM each time.
Take `N=C(N)c1ccc(-c2ccc(-c3ccc(Cl)cn3)s2)cc1`: the GI50 is 3.82 µM in the assay on A498 renal; 1.61 µM with ACHN renal; 1.77 µM with M14 melanoma; 1.65 µM with PC-3 prostate; 1.63 µM in the assay with SF-539 CNS; 1.67 µM in the assay with SK-MEL-28 melanoma. Besides, the TGI in the assay on A498 renal was determined as 17.3 µM; with ACHN renal it was 2.96 µM; with M14 melanoma, 3.24 µM; with PC-3 prostate, 3.17 µM; in the assay with SF-539 CNS it was 3.01 µM; in the assay with SK-MEL-28 melanoma, 3.07 µM.
As to `CCN(CC)Cc1ccc2cccnc2c1O`, the TGI is 33.5 µM in the assay with A498 renal; over 100 µM in the assay on ACHN renal; over 100 µM in the assay with CAKI-1 renal; 75 µM in the assay with HL-60(TB) leukemia; 3.28 µM in the assay on NCI-H522 lung; over 100 µM with PC-3 prostate. Moreover, the TGI was 51.2 µM in the assay on SF-295 CNS, 20.7 µM in the assay with SF-539 CNS and over 100 µM with SK-MEL-28 melanoma.
For the molecule `Cc1cc(=O)[nH]c(NN2C(Cl)C(=O)C2c2cccc([N+](=O)[O-])c2)n1` (stereo not drawn), the TGI was over 100 µM with ACHN renal, 36.8 µM in the assay on HL-60(TB) leukemia, 32.2 µM in the assay with M14 melanoma and 47.2 µM in the assay on SK-MEL-28 melanoma.
For `COc1cc2c(cc1OC)C(Cl)C(c1ccc(Cl)cc1)=C2Cl` (stereo not drawn), the TGI in the assay with A498 renal turned out to be 46 µM; in the assay with ACHN renal it was 30.1 µM; in the assay on CAKI-1 renal it was 40.3 µM; in the assay with HL-60(TB) leukemia, 41 µM; in the assay on M14 melanoma, 33.6 µM; in the assay with NCI-H522 lung, 32.5 µM. Further, the TGI was 30 µM in the assay with SF-295 CNS, 31.2 µM with SF-539 CNS and 41.4 µM in the assay on SK-MEL-28 melanoma.
Turning to `C[C@H]1CCC/C=C/[C@@H]2C[C@H](O)C[C@H]2[C@H](O)[C@@H](S(=O)CCN)CC(=O)O1` (stereo partly drawn), the GI50 is 0.0322 µM in the assay on A498 renal; 0.121 µM in the assay on ACHN renal; 0.0979 µM with CAKI-1 renal; 0.0294 µM in the assay on M14 melanoma; 0.0986 µM in the assay on NCI-H522 lung; 0.0442 µM in the assay with PC-3 prostate. The GI50 was 0.117 µM in the assay with SF-295 CNS, under 0.0176 µM in the assay on SF-539 CNS and 0.0475 µM with SK-MEL-28 melanoma. Also, the TGI in the assay with A498 renal is 0.126 µM; in the assay on ACHN renal, 2.84 µM; in the assay on NCI-H522 lung, 0.926 µM; in the assay with SF-295 CNS it was over 100 µM; with SK-MEL-28 melanoma, over 100 µM.
Take `c1ccc2c[n+](CCCCCCCCCC[n+]3ccc4ccccc4c3)ccc2c1`: the TGI with 786-0 renal, with A498 renal, in the assay with ACHN renal, with CAKI-1 renal, with HL-60(TB) leukemia and with M14 melanoma was over 10 µM each time. For the same molecule, the TGI with NCI-H522 lung, in the assay on PC-3 prostate, with SF-295 CNS, with SF-539 CNS and in the assay with SK-MEL-28 melanoma was over 10 µM each time.
As for `CC[C@H](Nc1nc(N)nc(N)c1Cl)c1nc2cccc(NCc3ccc(C(=O)NO)cc3)c2c(=O)n1-c1ccccc1`, the GI50 is 1.34 µM in the assay with A498 renal; 1.98 µM with ACHN renal; 2 µM with CAKI-1 renal; 1.29 µM in the assay with NCI-H522 lung; 1.53 µM with PC-3 prostate; 1.64 µM in the assay on SF-539 CNS. In the assay with SK-MEL-28 melanoma, the GI50 was 1.55 µM. Also, the TGI came to 2.71 µM with A498 renal; 4.2 µM in the assay on ACHN renal; 5 µM in the assay with CAKI-1 renal; 3.6 µM with NCI-H522 lung; 3.7 µM with PC-3 prostate; 3.06 µM in the assay on SF-539 CNS. In the assay with SK-MEL-28 melanoma, this molecule came in with a TGI of 3.21 µM.
In the case of `O=C(O)c1ccccn1`, the TGI in the assay with 786-0 renal, with A498 renal, in the assay on ACHN renal, in the assay on CAKI-1 renal, with M14 melanoma and in the assay with PC-3 prostate was over 100 µM in each case. Also, the TGI in the assay with SF-295 CNS, in the assay on SF-539 CNS and in the assay with SK-MEL-28 melanoma was over 100 µM each time.
Regarding `COc1cnc2c(c1)C(=O)c1c-2n(CCCN2CCNCC2)c(=O)c2cc(Cl)ccc12`, the GI50 with A498 renal is 0.551 µM; in the assay on ACHN renal, 0.181 µM; in the assay on CAKI-1 renal it was 0.414 µM; with SF-539 CNS, 1.33 µM. Also, the TGI amounted to 2.28 µM in the assay with A498 renal, 1.27 µM in the assay on ACHN renal, 1.91 µM in the assay on CAKI-1 renal and 2.63 µM in the assay on SF-539 CNS.
Consider `O=C1c2ccccc2C(=O)c2c(NCCNC(=O)C3CCCN3)ccc(NCCNC(=O)C3CCCN3)c21` (stereo not drawn), for which the TGI was 2.09 µM in the assay with 786-0 renal; over 100 µM in the assay on ACHN renal; over 100 µM in the assay with CAKI-1 renal; over 100 µM with HL-60(TB) leukemia; over 100 µM with M14 melanoma; 65.2 µM in the assay with NCI-H522 lung. Also, the TGI in the assay with PC-3 prostate, in the assay with SF-295 CNS, in the assay on SF-539 CNS and in the assay on SK-MEL-28 melanoma was over 100 µM in each case.
For the molecule `CN(C)CCNC(=O)c1cccc2nc3c4ccccc4c4ccccc4c3nc12`, the TGI with A498 renal came to 15.6 µM; with ACHN renal, 12.4 µM; in the assay with CAKI-1 renal it was 47.7 µM; in the assay with HL-60(TB) leukemia it was 4.09 µM; with M14 melanoma, 4.97 µM; in the assay with NCI-H522 lung it was 23.4 µM. Moreover, the TGI in the assay on PC-3 prostate came to 3.05 µM; with SF-295 CNS, 10.1 µM; in the assay with SF-539 CNS, 3.18 µM; in the assay with SK-MEL-28 melanoma, 3.27 µM.
Turning to `CN(C)[C@@H]1C(=O)C(C(=O)NCNCCCC(=O)O)=C(O)[C@@]2(O)C(=O)C3=C(O)c4c(O)cccc4[C@@](C)(O)[C@H]3C[C@@H]12`, the TGI in the assay on 786-0 renal, in the assay with A498 renal, in the assay with ACHN renal, in the assay with CAKI-1 renal, in the assay with HL-60(TB) leukemia and in the assay with M14 melanoma was over 100 µM in each case. Moreover, the TGI with NCI-H522 lung, in the assay with SF-295 CNS, with SF-539 CNS and in the assay with SK-MEL-28 melanoma was over 100 µM in each case.
